The text below walks through data of ChEMBL document CHEMBL3997794, “Design and synthesis of benzodiazepine analogs as isoform-selective human lysine deacetylase inhibitors” (Eur J Med Chem, 2017).

Assay [1] concerns the target T1, Histone deacetylase 8 (Homo sapiens) (UniProt Q9BY41).
T1 sequence (whole entry): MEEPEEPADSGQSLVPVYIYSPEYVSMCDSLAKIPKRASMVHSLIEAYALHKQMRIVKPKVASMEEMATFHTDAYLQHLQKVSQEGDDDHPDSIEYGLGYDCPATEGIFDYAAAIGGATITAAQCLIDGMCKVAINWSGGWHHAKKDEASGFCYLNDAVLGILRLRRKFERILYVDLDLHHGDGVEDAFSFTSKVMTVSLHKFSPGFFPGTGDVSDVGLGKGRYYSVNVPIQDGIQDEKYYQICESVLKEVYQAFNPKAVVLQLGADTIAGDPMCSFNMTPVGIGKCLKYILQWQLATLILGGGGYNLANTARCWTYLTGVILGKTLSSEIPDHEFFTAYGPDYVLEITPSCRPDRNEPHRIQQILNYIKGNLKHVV
Nature of the assay: Inhibition of human KDAC8 at 30 uM after 60 mins by fluorescence assay relative to control.

Assay [2] concerns the target T2, Histone deacetylase 1 (Homo sapiens, UniProt Q13547). Nature of the assay: Inhibition of human KDAC1 at 30 uM using substrate A after 60 mins by fluorescence assay relative to control.
In assay [3] the target is T3, Histone deacetylase 3 (Homo sapiens, UniProt O15379). Kind of assay: Inhibition of human KDAC3 at 30 uM using FITC-labeled p53 acetylated peptide as substrate after 60 mins by fluorescence assay relative to control.
Assay [4] addresses T4, Protein deacetylase HDAC6 (Homo sapiens) (UniProt Q9UBN7).
T4 sequence (whole entry): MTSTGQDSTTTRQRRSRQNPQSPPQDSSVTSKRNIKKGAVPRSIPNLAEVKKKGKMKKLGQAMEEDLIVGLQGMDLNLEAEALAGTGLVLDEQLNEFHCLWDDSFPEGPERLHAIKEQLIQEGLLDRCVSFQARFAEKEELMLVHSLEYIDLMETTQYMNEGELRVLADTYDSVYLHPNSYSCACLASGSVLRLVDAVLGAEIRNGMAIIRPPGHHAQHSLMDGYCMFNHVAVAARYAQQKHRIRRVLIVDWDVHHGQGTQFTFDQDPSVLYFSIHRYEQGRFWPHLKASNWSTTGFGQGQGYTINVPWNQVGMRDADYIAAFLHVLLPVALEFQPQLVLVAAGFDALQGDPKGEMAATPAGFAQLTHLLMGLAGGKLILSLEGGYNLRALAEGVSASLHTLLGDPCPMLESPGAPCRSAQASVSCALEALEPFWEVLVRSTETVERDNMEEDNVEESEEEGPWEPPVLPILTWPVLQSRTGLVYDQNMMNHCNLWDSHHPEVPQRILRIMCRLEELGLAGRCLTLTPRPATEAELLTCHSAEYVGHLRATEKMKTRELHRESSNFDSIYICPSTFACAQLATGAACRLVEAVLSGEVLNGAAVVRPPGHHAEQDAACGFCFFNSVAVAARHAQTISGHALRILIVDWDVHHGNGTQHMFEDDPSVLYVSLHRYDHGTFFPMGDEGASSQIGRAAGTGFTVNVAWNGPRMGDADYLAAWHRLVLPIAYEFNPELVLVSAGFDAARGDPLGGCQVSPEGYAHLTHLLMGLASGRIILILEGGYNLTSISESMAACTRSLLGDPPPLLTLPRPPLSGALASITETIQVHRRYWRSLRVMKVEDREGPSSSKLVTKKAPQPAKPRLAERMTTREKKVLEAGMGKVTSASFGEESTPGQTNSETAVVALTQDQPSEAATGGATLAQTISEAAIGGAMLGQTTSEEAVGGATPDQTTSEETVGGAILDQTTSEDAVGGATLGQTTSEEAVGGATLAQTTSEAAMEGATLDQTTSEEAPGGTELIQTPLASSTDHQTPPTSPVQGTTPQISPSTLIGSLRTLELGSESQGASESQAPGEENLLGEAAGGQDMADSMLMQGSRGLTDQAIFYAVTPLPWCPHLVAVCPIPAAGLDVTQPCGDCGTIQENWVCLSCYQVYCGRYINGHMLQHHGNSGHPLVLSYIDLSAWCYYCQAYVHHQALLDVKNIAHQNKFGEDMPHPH
Particulars: at 30 µM.
Description: Inhibition of human KDAC6 at 30 uM using FITC-labeled histone H4 acetylated peptide as substrate after 60 mins by fluorescence assay relative to control

For assay [5], the target named is T5, Protein deacetylase HDAC6 (Homo sapiens, UniProt Q9UBN7).
T5 sequence (Q9UBN7 whole entry): T4 sequence (whole entry)
Nature of the assay: Inhibition of human KDAC6 using FITC-labeled histone H4 acetylated peptide as substrate after 60 mins by fluorescence assay.

The target in the next assay is T6, Histone deacetylase 8 (Homo sapiens, UniProt Q9BY41).
T6 sequence (Q9BY41 whole entry): T1 sequence (whole entry)
Nature of the assay: Inhibition of human KDAC8 after 60 mins by fluorescence assay.

Assay [6] has as its target T2, Histone deacetylase 1. Kind of assay: Inhibition of human KDAC1 using substrate A after 60 mins by fluorescence assay.
Assay [7] addresses T3, Histone deacetylase 3. Nature of the assay: Inhibition of human KDAC3 using FITC-labeled p53 acetylated peptide as substrate after 60 mins by fluorescence assay.

T2 sequence (Q13547 whole entry): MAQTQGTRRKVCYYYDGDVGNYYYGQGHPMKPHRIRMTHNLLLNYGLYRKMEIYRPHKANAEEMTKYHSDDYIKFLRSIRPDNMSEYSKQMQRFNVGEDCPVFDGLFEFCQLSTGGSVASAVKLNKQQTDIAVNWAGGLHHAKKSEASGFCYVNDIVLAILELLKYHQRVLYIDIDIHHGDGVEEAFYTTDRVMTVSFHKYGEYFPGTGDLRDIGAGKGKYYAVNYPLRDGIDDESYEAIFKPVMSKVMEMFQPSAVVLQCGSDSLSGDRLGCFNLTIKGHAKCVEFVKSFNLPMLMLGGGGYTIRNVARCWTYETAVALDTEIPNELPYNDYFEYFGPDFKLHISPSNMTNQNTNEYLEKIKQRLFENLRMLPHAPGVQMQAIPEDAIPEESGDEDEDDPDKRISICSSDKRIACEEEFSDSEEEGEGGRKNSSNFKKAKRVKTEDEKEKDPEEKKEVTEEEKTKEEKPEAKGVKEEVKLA
T3 sequence (O15379 whole entry): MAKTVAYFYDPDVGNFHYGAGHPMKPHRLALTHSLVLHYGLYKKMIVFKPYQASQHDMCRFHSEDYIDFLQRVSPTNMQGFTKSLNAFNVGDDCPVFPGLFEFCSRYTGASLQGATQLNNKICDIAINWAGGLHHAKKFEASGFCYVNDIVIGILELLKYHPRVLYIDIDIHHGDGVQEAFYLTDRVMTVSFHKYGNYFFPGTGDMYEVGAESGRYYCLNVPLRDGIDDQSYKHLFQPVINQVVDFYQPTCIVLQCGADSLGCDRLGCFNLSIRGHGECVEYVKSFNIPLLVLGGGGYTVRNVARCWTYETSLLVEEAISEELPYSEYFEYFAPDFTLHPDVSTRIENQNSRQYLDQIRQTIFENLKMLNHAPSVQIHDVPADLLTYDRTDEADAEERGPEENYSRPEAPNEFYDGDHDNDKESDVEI

A word on the inhibition: it is the relative decrease from the control value, in per cent. Usually IC50 stands for the concentration needed to halve the response being measured. In the case of `O=C(CCCNC(=O)CC[C@@H]1N=C(c2ccccc2)c2ccccc2NC1=O)NO`, the inhibition in assay [1] stood at 33.6%; against Histone deacetylase 1 [2] it was 55.8%; on Histone deacetylase 3 [3], 87.2%; in assay [4], 83.5%. The IC50 in assay [5] is 7.16 µM; against Histone deacetylase 8, greater than 30 µM; at Histone deacetylase 1 [6] it was 22.9 µM; against Histone deacetylase 3 [7] it was 5.17 µM.

Regarding `O=C1CN=C(c2ccccc2)c2ccccc2N1` [RO-052921], the inhibition in assay [1] was 2.82%; against Histone deacetylase 1 [2] it was 7.95%; on Histone deacetylase 3 [3], 3.45%; in assay [4] it was 0%. The IC50 (in assay [5]; on Histone deacetylase 8; against Histone deacetylase 1 [6]; at Histone deacetylase 3 [7]) was greater than 30 µM in each case.

For the compound `CSCC[C@@H]1N=C(c2ccccc2)c2ccccc2NC1=O`, the inhibition in assay [1] stood at 9.07%; against Histone deacetylase 1 [2] it was 0%; on Histone deacetylase 3 [3] it was 0%; in assay [4], 2.62%. Besides, the IC50 (in assay [5]; against Histone deacetylase 8; on Histone deacetylase 1 [6]; against Histone deacetylase 3 [7]) was greater than 30 µM throughout.

With `O=C(C[C@H]1N=C(c2ccccc2)c2ccccc2NC1=O)NO`, the inhibition in assay [1] was determined as 19%; against Histone deacetylase 1 [2] it was 9.14%; on Histone deacetylase 3 [3] it was 1.64%; in assay [4], 0%. Also, the IC50 (in assay [5]; against Histone deacetylase 8; at Histone deacetylase 1 [6]; against Histone deacetylase 3 [7]) was greater than 30 µM throughout.

In the case of `O=C(O)CC[C@H]1N=C(c2ccccc2)c2ccccc2NC1=O`, the inhibition in assay [1] was 0%; against Histone deacetylase 1 [2] it was 10.2%; against Histone deacetylase 3 [3], 0%; in assay [4] it was 0%. Further, the IC50 (in assay [5]; at Histone deacetylase 8; on Histone deacetylase 1 [6]; against Histone deacetylase 3 [7]) was greater than 30 µM each time.

As for `CC(C)(C)OC(=O)CC[C@@H]1N=C(c2ccccc2)c2ccccc2N(CCCCC(=O)O)C1=O`, the inhibition came out at 9.85% in assay [1], 7.96% on Histone deacetylase 1 [2], 23.9% against Histone deacetylase 3 [3] and 0% in assay [4]. Further, the IC50 (in assay [5]; at Histone deacetylase 8; against Histone deacetylase 1 [6]; against Histone deacetylase 3 [7]) was greater than 30 µM in each case.

For the compound `NC(=O)CC[C@@H]1N=C(c2ccccc2)c2ccccc2N(CCCCC(=O)NO)C1=O`, the inhibition in assay [1] was found to be 30.8%; on Histone deacetylase 1 [2], 64.5%; against Histone deacetylase 3 [3] it was 94%; in assay [4], 96%. In addition, the IC50 in assay [5] is 1.29 µM; against Histone deacetylase 8, greater than 30 µM; on Histone deacetylase 1 [6] it was 13.9 µM; on Histone deacetylase 3 [7], 1.94 µM.

Take `CC[C@H](C)[C@@H]1N=C(c2ccccc2)c2ccccc2NC1=O`: the inhibition in assay [1] came to 0%; against Histone deacetylase 1 [2], 6.77%; against Histone deacetylase 3 [3], 0.56%; in assay [4], 1.82%. Further, the half-inhibitory concentration (IC50) (in assay [5]; against Histone deacetylase 8; against Histone deacetylase 1 [6]; on Histone deacetylase 3 [7]) was greater than 30 µM throughout.

For `CC(C)(C)OC(=O)CC[C@@H]1N=C(c2ccccc2)c2ccccc2N(CCCCC(=O)NO)C1=O`, the inhibition is 52.5% in assay [1], 83.8% at Histone deacetylase 1 [2], 99.9% on Histone deacetylase 3 [3] and 93.7% in assay [4]. Besides, the IC50 came out at 2.35 µM in assay [5], 26.1 µM on Histone deacetylase 8, 4.57 µM at Histone deacetylase 1 [6] and 1.03 µM on Histone deacetylase 3 [7].

Turning to `O=C(O)CCCCN1C(=O)[C@H](Cc2ccccc2)N=C(c2ccccc2)c2ccccc21`, the inhibition in assay [1] turned out to be 6.22%; on Histone deacetylase 1 [2], 11.9%; against Histone deacetylase 3 [3] it was 0.91%; in assay [4], 0%. Further, the IC50 (in assay [5]; at Histone deacetylase 8; against Histone deacetylase 1 [6]; against Histone deacetylase 3 [7]) was greater than 30 µM each time.

As for `CC(C)(C)OC[C@@H]1N=C(c2ccccc2)c2ccccc2N(CCCCC(=O)NO)C1=O`, the inhibition in assay [1] worked out at 26.9%; against Histone deacetylase 1 [2], 73.7%; against Histone deacetylase 3 [3], 94.6%; in assay [4], 85.1%. Moreover, the IC50 was 5.05 µM in assay [5], greater than 30 µM at Histone deacetylase 8, 9 µM on Histone deacetylase 1 [6] and 1.21 µM at Histone deacetylase 3 [7].

In the case of `CC(C)(C)OC(=O)CC[C@@H]1N=C(c2ccccc2)c2ccccc2NC1=O`, the inhibition came out at 1.79% in assay [1], 5.85% at Histone deacetylase 1 [2], 0% against Histone deacetylase 3 [3] and 0.01% in assay [4]. Also, the IC50 (in assay [5]; against Histone deacetylase 8; against Histone deacetylase 1 [6]; at Histone deacetylase 3 [7]) was greater than 30 µM each time.

On to `N=C(N)NCCC[C@@H]1N=C(c2ccccc2)c2ccccc2N(CCCCC(=O)NO)C1=O`, for which the inhibition stood at 27.9% in assay [1], 91.8% at Histone deacetylase 1 [2], 101% against Histone deacetylase 3 [3] and 91.2% in assay [4]. Further, the IC50 in assay [5] is 2.63 µM; against Histone deacetylase 8 it was greater than 30 µM; against Histone deacetylase 1 [6], 1.44 µM; against Histone deacetylase 3 [7], 0.22 µM.

As for `CC(C)C[C@@H]1N=C(c2ccccc2)c2ccccc2NC1=O`, the inhibition amounted to 0% in assay [1], 2.85% against Histone deacetylase 1 [2], 0% against Histone deacetylase 3 [3] and 5.48% in assay [4]. For the same compound, the IC50 (in assay [5]; against Histone deacetylase 8; at Histone deacetylase 1 [6]; against Histone deacetylase 3 [7]) was greater than 30 µM throughout.

Consider `O=C(CCCCN1C(=O)[C@H](Cc2cc3ccccc3[nH]2)N=C(c2ccccc2)c2ccccc21)NO`, for which the inhibition in assay [1] was determined as 34.1%; against Histone deacetylase 1 [2], 60%; against Histone deacetylase 3 [3], 98.9%; in assay [4], 93.2%. Further, the IC50 in assay [5] is 1.95 µM; against Histone deacetylase 8, greater than 30 µM; on Histone deacetylase 1 [6], 16.8 µM; on Histone deacetylase 3 [7], 1.01 µM.

In the case of `O=C(C[C@@H]1N=C(c2ccccc2)c2ccccc2NC1=O)NC(c1ccccc1)(c1ccccc1)c1ccccc1`, the inhibition in assay [1] was found to be 0%; at Histone deacetylase 1 [2], 4.31%; against Histone deacetylase 3 [3] it was 0%; in assay [4] it was 0%. Besides, the IC50 (in assay [5]; at Histone deacetylase 8; at Histone deacetylase 1 [6]; against Histone deacetylase 3 [7]) was greater than 30 µM in each case.

`O=C(CC[C@@H]1N=C(c2ccccc2)c2ccccc2NC1=O)NO`: the inhibition in assay [1] is 43.8%; against Histone deacetylase 1 [2] it was 64.4%; against Histone deacetylase 3 [3] it was 4.57%; in assay [4], 36.5%. Besides, the IC50 in assay [5] is greater than 30 µM; on Histone deacetylase 8 it was greater than 30 µM; against Histone deacetylase 1 [6], 16.9 µM; at Histone deacetylase 3 [7], greater than 30 µM.

In the case of `CC(C)[C@@H]1N=C(c2ccccc2)c2ccccc2N(CCCCC(=O)O)C1=O`, the inhibition is 3.18% in assay [1], 2.24% on Histone deacetylase 1 [2], 0% on Histone deacetylase 3 [3] and 0% in assay [4]. In addition, the IC50 (in assay [5]; on Histone deacetylase 8; on Histone deacetylase 1 [6]; on Histone deacetylase 3 [7]) was greater than 30 µM in each case.
